Consider one compound from ChEMBL document CHEMBL3508574 (2016).

One may read the AUC(0-t) as the area under the concentration-time curve up to a stated or last time point. In general, half-life refers to how long it takes for the measured level to halve.

The nature of series [1]: Cmax of total HMG-CoA reductase inhibitor (both lactone and open acid) following administration of simvastatin tablet at 40 mg dose level in hypercholesterolemic patients. It counts as ADME, organism-based, Plasma. To be noted: human, in vivo, po.
Series [2] can be described thus: Cmax of total HMG-CoA reductase inhibitor (both lactone and open acid) following administration of simvastatin tablet at 80 mg dose level in hypercholesterolemic patients. It counts as ADME, organism-based, Plasma. To be noted: human, in vivo, po.
Series [3] in a line: Cmax of total HMG-CoA reductase inhibitor (both lactone and open acid) following administration of simvastatin tablet at 160 mg dose level in hypercholesterolemic patients. The class given is ADME, organism-based, Plasma. To be noted: human, in vivo, po.
A short description of series [4]: AUC of total HMG-CoA reductase inhibitor (both lactone and open acid) following administration of simvastatin tablet at 40 mg dose level in hypercholesterolemic patients. The class given is ADME, organism-based, Plasma. The settings on record: human, in vivo, po.
A short description of series [5]: AUC of total HMG-CoA reductase inhibitor (both lactone and open acid) following administration of simvastatin tablet at 80 mg dose level in hypercholesterolemic patients. It counts as ADME, organism-based, Plasma. To be noted: human, in vivo, po.
Series [6] is described as follows: AUC of total HMG-CoA reductase inhibitor (both lactone and open acid) following administration of simvastatin tablet at 160 mg dose level in hypercholesterolemic patients. The class given is ADME, organism-based, Plasma. To be noted: human, in vivo, po.
Series [7] in a line: Absorption of simvastatin following oral administration of simvastatin in rat. It counts as ADME, organism-based. To be noted: in vivo.
Series [8] is described as follows: Absorption of simvastatin following oral administration of simvastatin in dog. The class given is ADME, organism-based, Canis lupus familiaris. The settings on record: in vivo.
Series [9] can be described thus: Absorption of simvastatin following oral administration of simvastatin in human. It counts as ADME, organism-based. The settings on record: in vivo.
Series [10] has as its system Canis lupus familiaris. Kind of series: Plasma protein binding of simvastatin following oral dose of simvastatin at 2 mg.Kg-1 level in dog. More on the design: dose 2 mg.Kg-1, dosed compound id 2.4681e+06, dosed compound name, dose level, study doses mg.Kg-1. It counts as organism-based.
Series [11] deals with Homo sapiens. The experiment in a line: Plasma protein binding of simvastatin following oral dose of simvastatin at […] level in human. The class given is organism-based. The arrangement: dose 40 mg, dosed compound id 2.4681e+06, dosed compound name, dose level, study doses mg.
The nature of series [12]: Mean AUC (0-t) of simvastatin following administration of simvastatin 80 mg orally disintegrating tablet in healthy human. The class given is ADME, organism-based. To be noted: plasma, po.
Series [13] is described as follows: Mean AUC (0-t) of simvastatin following administration of reference product Zocor 80 mg tablet in healthy human. The class given is ADME, organism-based. The settings on record: plasma, po.
The nature of series [14]: Mean AUC (0-infinity) of simvastatin following administration of simvastatin 80 mg orally disintegrating tablet in healthy human. It counts as ADME, organism-based. The settings on record: plasma, po, read-out: AUC (0-infinity).
Series [15] in a line: Mean AUC (0-infinity) of simvastatin following administration of reference product Zocor 80 mg tablet in healthy human. It counts as ADME, organism-based. The settings on record: plasma, po, read-out: AUC (0-infinity).
A short description of series [16]: Mean Cmax of simvastatin following administration of simvastatin 80 mg orally disintegrating tablet in healthy human. The class given is ADME, organism-based. To be noted: plasma, po.
Series [17] can be described thus: Mean Cmax of simvastatin following administration of reference product Zocor 80 mg tablet in healthy human. The class given is ADME, organism-based. To be noted: plasma, po.
The nature of series [18]: Mean elimination rate constant of simvastatin following administration of simvastatin 80 mg orally disintegrating tablet in healthy human. The class given is ADME, organism-based. The settings on record: plasma, po.
Series [19] is described as follows: Mean elimination rate constant of simvastatin following administration of reference product Zocor 80 mg tablet in healthy human. The class given is ADME, organism-based. To be noted: plasma, po.
A short description of series [20]: Mean elimination half-life of simvastatin following administration of simvastatin 80 mg orally disintegrating tablet in healthy human. The settings on record: plasma, po. The class given is ADME, organism-based.
Series [21] in a line: Mean elimination half-life of simvastatin following administration of reference product Zocor 80 mg tablet in healthy human. The class given is ADME, organism-based. To be noted: plasma, po.

As to `CCC(C)(C)C(=O)O[C@H]1C[C@@H](C)C=C2C=C[C@H](C)[C@H](CC[C@@H]3C[C@@H](O)CC(=O)O3)[C@H]21` [SIMVASTATIN], the Cmax in [1] is 75 ng.eq.ml-1; in series [2] it was 165 ng.eq.ml-1; in series [3], 404 ng.eq.ml-1; in series [16], 18.3 ng/mL; in [17] it was 19.4 ng/mL. Further, the AUC in [4] is 316 ng.eq.h.ml-1; in [5] it was 636 ng.eq.h.ml-1; in series [6] it was 1533 ng.eq.h.ml-1. Moreover, the Absorption result in series [7] is “Simvastatin is well absorbed in rats”; in [8], “Simvastatin is well absorbed in dogs”; in [9], “Simvastatin is well absorbed in humans”. In addition, the PPB in [10] and in series [11] was 97% throughout. The AUC(0-t) in series [12] worked out at 77.6 ng·h/mL; in [13], 83.9 ng·h/mL. Moreover, the results for the AUC(0-inf) in series [14] and in [15] were 98.5 ng·h/mL and 102 ng·h/mL, respectively. Moreover, the results for the k el in [18] and in series [19] were 4.16e-05 s⁻¹ and 3.02e-05 s⁻¹, respectively. Further, the half-life is 9.39 h in [20] and 10.1 h in series [21].
